Measured values taken from PMC6384922, “Potent in Vitro α-Glucosidase Inhibition of Secondary Metabolites Derived from Dryopteris cycadina” (Molecules, 2019).
“And” between values parts separate entries of the source, which are not always exact repeats. Equal entries are not always repeated. Where two headings read alike, the source gives them in different places.

Tests used:
[1] = target: T1, α-glucosidase (EC3.2.1.20) (Saccharomyces cerevisiae, UniProt P07265); assay: biochemical; details: for inhibition at 500 µM: read-out: maximum α-glucosidase inhibitory activity (% inhibition); for IC50: α-glucosidase, mean ± SEM of three independent readings
T1 construct: purchased Sigma Aldrich
T1 sequence (P07265 whole entry): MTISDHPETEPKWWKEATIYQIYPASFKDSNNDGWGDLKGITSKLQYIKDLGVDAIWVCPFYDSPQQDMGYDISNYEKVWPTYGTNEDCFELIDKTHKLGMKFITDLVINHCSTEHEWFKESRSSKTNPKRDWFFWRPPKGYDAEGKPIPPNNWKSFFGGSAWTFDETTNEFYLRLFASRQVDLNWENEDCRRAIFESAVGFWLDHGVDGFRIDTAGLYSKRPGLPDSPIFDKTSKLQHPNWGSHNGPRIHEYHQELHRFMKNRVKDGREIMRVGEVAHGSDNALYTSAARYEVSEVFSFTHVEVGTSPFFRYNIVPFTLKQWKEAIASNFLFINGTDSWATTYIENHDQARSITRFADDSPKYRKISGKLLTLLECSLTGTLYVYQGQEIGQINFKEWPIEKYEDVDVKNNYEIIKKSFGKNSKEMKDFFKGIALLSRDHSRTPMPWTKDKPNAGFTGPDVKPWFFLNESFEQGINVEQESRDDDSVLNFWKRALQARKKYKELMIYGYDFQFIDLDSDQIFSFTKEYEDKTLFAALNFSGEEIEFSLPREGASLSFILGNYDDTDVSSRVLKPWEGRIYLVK
Description: The α-glucosidase (Saccharomyces cerevisiae) inhibitory assay was carried out with slight modifications according to the method described in [21, 26, 27]. For the evaluation of α-glucosidase inhibitory activity, 10 µl of freshly prepared phosphate buffer (pH 6.8) were plated in triplicate for a micro-well plate with the help of a micropipette. Then, 30 µL of α-glucosidase enzyme with a concentration of 0.017 units/mL of 70% ethanol and 10 µL of test compound solution were added to the same well plate. The plates were then incubated for 15 min at 37 °C and an initial reading was taken at 405 nm using the ELISA micro plate reader. Furthermore, 100 µl of 0.7mM PNPG substrate was added to each well of the plate and again incubated at 37 °C for 30 min, forming a yellow color. The final reading was taken again at λ max 405 nm using the ELISA plate reader. […] Each reading was taken in triplicate. The percent inhibition was calculated using the following formula, % inhibition = [(A negative control − A test sample)/A negative control] × 100, where A is absorbance.
The half-maximal inhibitory concentration values were determined using the Graphpad Prism version 7.0 software (San Diego, CA, USA. All values are represented as mean ± SEM.

[2] = target: T1, α-glucosidase (EC3.2.1.20); design: method as in PMID 18341288; details: cited from earlier work

Row | SMILES | inhibition at 500 µM [1] [%] | IC50 ([1]; read-out: IC50 ± SEM) [µM] | IC50 ([1]; IC50 ± SEM) | α-glucosidase inhibitory activity in previous studies [2]
1 | CCC(CCC(C)C1CCC2C3CC=C4CC(OC5OC(CO)C(O)C(O)C5O)CCC4(C)C3CCC12C)C(C)C [Compound 2, β-Sitosterol3-O-β-D-glucopyranoside] | 92 | 314 ± 4.58 |  | 
2 | CC[C@H](CC[C@@H](C)[C@H]1CC[C@H]2[C@@H]3CC=C4C[C@@H](O)CC[C@]4(C)[C@H]3CC[C@]12C)C(C)C [Compound 1, β-Sitosterol] | 92.9 |  | 143 ± 0.47 µM | inactive
3 | Cc1ccc(C2Oc3cc(O)cc(O)c3C(=O)C2O)cc1 (stereo not shown) [Compound 3, 3,5,7-trihydroxy-2-(p-tolyl) chorman-4-one] | 94 |  | 136 µM and 133 µM | 
